Here are results for 33 molecules from ChEMBL document CHEMBL1135251, “Oxime derivatives of sordaricin as potent antifungal agents” (Bioorg Med Chem Lett, 2002).

Values after ≈ are worked out from the molar mass of the structure shown. Some results are limits rather than exact numbers.

Series [1] relates to Nakaseomyces glabratus. Nature of the series: Minimum inhibitory concentration against Candida glabrata. The series is classed as functional.
Series [2] deals with Candida albicans. Nature of the series: Minimum inhibitory concentration against Candida albicans. It is filed as functional.
Series [3] in a line: Therapeutic index (CC50/MIC) was determined.
Series [4] relates to HEp-2. As to the kind of experiment: Cytotoxicity was evaluated against Hep-2 cells in vitro. It is filed as functional. The note with it: Homo sapiens.
Series [5] deals with Cryptococcus neoformans. As to the kind of experiment: In vitro minimum inhibitory concentration against […].

Regarding `CCC(C)(C)CC1CC(C23C[C@@H]4[C@H](C)CC[C@H]4C4(C=O)CC2C=C(C(C)C)[C@@]34C(=O)O)=NO1` (stereo not given in full), the MIC (as a rule, the least concentration at which growth counts as inhibited) in series [1] is 1 µg/mL (≈ 2.19 µM); in series [2] it was 4 µg/mL (≈ 8.78 µM).
On the same counts, the results for `CC(C)C1=CC2CC3(C=O)[C@@H]4CC[C@@H](C)[C@H]4CC2(C2=NOC(CC#N)C2)[C@]13C(=O)O` (stereo not given in full) are 128 µg/mL (≈ 312 µM) and 128 µg/mL (≈ 312 µM).
`CC(C)C1=CC2CC3(C=O)[C@@H]4CC[C@@H](C)[C@H]4CC2(c2cc(CO)on2)[C@]13C(=O)O`: the minimum inhibitory concentration (MIC) in series [1] and in series [2] was over 128 µg/mL each time.
As to `CCCCC1CC(C23C[C@@H]4[C@H](C)CC[C@H]4C4(C=O)CC2C=C(C(C)C)[C@@]34C(=O)O)=NO1` (stereo not given in full), the MIC in series [1] and in series [2] was 2 µg/mL (≈ 4.68 µM) throughout.
In series [3], `CC(C)=CCO/N=C/C12C[C@@H]3[C@H](C)CC[C@H]3C3(C=O)CC1C=C(C(C)C)[C@@]23C(=O)O` displayed a Therapeutic index of 4.5. Further, in series [4], it took 4.5 µg/mL (≈ 10.9 µM) to reach half-maximal cytotoxicity (CC50). Also, the MIC in series [1] and in series [2] was 1 µg/mL (≈ 2.42 µM) each time.
`CC(C)C1=CC2CC3(C=O)[C@@H]4CC[C@@H](C)[C@H]4CC2(/C=N/OCC2CCCCO2)[C@]13C(=O)O` (stereo not given in full) gave a Therapeutic index in series [3] of 4.5. Also, in series [4], it took 9 µg/mL (≈ 20.3 µM) to reach half-maximal cytotoxicity (CC50). For the same molecule, the MIC in series [1] worked out at 8 µg/mL (≈ 18 µM); in series [2], 2 µg/mL (≈ 4.51 µM).
On the same counts, the results for `CCOCCO/N=C/C12C[C@@H]3[C@H](C)CC[C@H]3C3(C=O)CC1C=C(C(C)C)[C@@]23C(=O)O` are 1.4, 22 µg/mL (≈ 52.7 µM), 16 µg/mL (≈ 38.3 µM) and 16 µg/mL (≈ 38.3 µM).
With `CCOC(=O)C1CC(C23C[C@@H]4[C@H](C)CC[C@H]4C4(C=O)CC2C=C(C(C)C)[C@@]34C(=O)O)=NO1` (stereo not given in full), the figures for the MIC in series [1] and in series [2] were 4 µg/mL (≈ 9.02 µM) and 8 µg/mL (≈ 18 µM), respectively.
In series [3], `CC(C)C1=CC2CC3(C=O)[C@@H]4CC[C@@H](C)[C@H]4CC2(/C=N/OCC2CCCCC2)[C@]13C(=O)O` displayed a Therapeutic index of 2.4. Also, the 50% cytotoxic concentration (CC50) – broadly, the concentration at which the toxic effect on the cells reaches its halfway point – in series [4] was 0.6 µg/mL (≈ 1.36 µM). Moreover, the minimum inhibitory concentration (MIC) in series [1] was 1 µg/mL (≈ 2.26 µM); in series [2] it was 0.25 µg/mL (≈ 0.566 µM).
On the same counts, the results for `CC[C@@H](C)CO/N=C/C12C[C@@H]3[C@H](C)CC[C@H]3C3(C=O)CC1C=C(C(C)C)[C@@]23C(=O)O` are 11, 2.7 µg/mL (≈ 6.5 µM), 0.5 µg/mL (≈ 1.2 µM) and 0.25 µg/mL (≈ 0.602 µM).
Regarding `CCCCCO/N=C/C12C[C@@H]3[C@H](C)CC[C@H]3C3(C=O)CC1C=C(C(C)C)[C@@]23C(=O)O`, the minimum inhibitory concentration (MIC) was 64 µg/mL (≈ 154 µM) in series [5], 0.06 µg/mL (≈ 0.144 µM) in series [1] and 0.06 µg/mL (≈ 0.144 µM) in series [2]. Further, the Therapeutic index in series [3] came to 92. Moreover, it took 5.5 µg/mL (≈ 13.2 µM) to reach half-maximal cytotoxicity in series [4] (CC50).
On to `CC(C)CO/N=C/C12C[C@@H]3[C@H](C)CC[C@H]3C3(C=O)CC1C=C(C(C)C)[C@@]23C(=O)O`, for which the Therapeutic index in series [3] amounted to 70. The molecule further registered a CC50 in series [4] of 35 µg/mL (≈ 87.2 µM). Also, the minimal inhibitory concentration (MIC) in series [1] and in series [2] was 0.5 µg/mL (≈ 1.25 µM) each time.
Regarding `CC#CCO/N=C/C12C[C@@H]3[C@H](C)CC[C@H]3C3(C=O)CC1C=C(C(C)C)[C@@]23C(=O)O`, the Therapeutic index in series [3] stood at 2. This molecule gave a 50% cytotoxic concentration (CC50) in series [4] of 16 µg/mL (≈ 40.3 µM). In addition, the figures for the minimum inhibitory concentration (MIC) in series [1] and in series [2] were 32 µg/mL (≈ 80.5 µM) and 8 µg/mL (≈ 20.1 µM), respectively.
Turning to `CC(C)C1=CC2CC3(C=O)[C@@H]4CC[C@@H](C)[C@H]4CC2(C2=NOC4OCCC24)[C@]13C(=O)O` (stereo not given in full), the figures for the MIC in series [1] and in series [2] were 8 µg/mL (≈ 19.3 µM) and over 128 µg/mL, respectively.
On the same counts, the results for `CC(C)CCC1CC(C23C[C@@H]4[C@H](C)CC[C@H]4C4(C=O)CC2C=C(C(C)C)[C@@]34C(=O)O)=NO1` (stereo not given in full) are 4 µg/mL (≈ 9.06 µM) and 1 µg/mL (≈ 2.26 µM).
Taken in the same sequence, the figures for `CC(C)C1=CC2CC3(C=O)[C@@H]4CC[C@@H](C)[C@H]4CC2(C2=NOC(CN4CCOCC4)C2)[C@]13C(=O)O` (stereo not given in full) were over 128 µg/mL and 16 µg/mL (≈ 34 µM).
Taken in the same sequence, the figures for `CC(C)C1=CC2CC3(C=O)[C@@H]4CC[C@@H](C)[C@H]4CC2(C2=NOC(C4CCCCC4)C2)[C@]13C(=O)O` (stereo not given in full) were 2 µg/mL (≈ 4.41 µM) and 2 µg/mL (≈ 4.41 µM).
Turning to `CC(C)C1=CC2CC3(C=O)[C@@H]4CC[C@@H](C)[C@H]4CC2(C2=NOC4CCCCC24)[C@]13C(=O)O` (stereo not given in full), the minimum inhibitory concentration (MIC) in series [1] is 1 µg/mL (≈ 2.35 µM); in series [2], over 128 µg/mL.
As for `Cc1ccccc1CO/N=C/C12C[C@@H]3[C@H](C)CC[C@H]3C3(C=O)CC1C=C(C(C)C)[C@@]23C(=O)O`, the MIC in series [1] and in series [2] was 16 µg/mL (≈ 35.6 µM) each time.
`CC(C)C1=CC2CC3(C=O)[C@@H]4CC[C@@H](C)[C@H]4CC2(C2=NOC(CO)C2)[C@]13C(=O)O` (stereo not given in full): the minimum inhibitory concentration (MIC) in series [1] and in series [2] was over 128 µg/mL each time.
The molecule `CC(C)C1=CC2CC3(C=O)[C@@H]4CC[C@@H](C)[C@H]4CC2(/C=N/OCCCC(F)(F)F)[C@]13C(=O)O` displayed a Therapeutic index in series [3] of 1.9. In series [4], this molecule displayed a 50% cytotoxic concentration (CC50) of 1.9 µg/mL (≈ 4.17 µM). Moreover, the minimal inhibitory concentration (MIC) in series [1] amounted to 4 µg/mL (≈ 8.78 µM); in series [2], 1 µg/mL (≈ 2.2 µM).
For the molecule `CC(C)C1=CC2CC3(C=O)[C@@H]4CC[C@@H](C)[C@H]4CC2(C2=NOC(CC(C)(C)C)C2)[C@]13C(=O)O` (stereo not given in full), the minimal inhibitory concentration (MIC) turned out to be 1 µg/mL (≈ 2.26 µM) in series [1] and 2 µg/mL (≈ 4.53 µM) in series [2].
As to `CC(C)C1=CC2CC3(C=O)[C@@H]4CC[C@@H](C)[C@H]4CC2(CO)[C@]13C(=O)O`, the MIC in series [1] and in series [2] was over 128 µg/mL in each case.
For `CC(C)C1=CC2CC3(C=O)[C@@H]4CC[C@@H](C)[C@H]4CC2(C2=NOC(c4ccccc4)C2)[C@]13C(=O)O` (stereo not given in full), the MIC in series [1] was 2 µg/mL (≈ 4.47 µM); in series [2], 16 µg/mL (≈ 35.7 µM).
Consider `COCCOCCO/N=C/C12C[C@@H]3[C@H](C)CC[C@H]3C3(C=O)CC1C=C(C(C)C)[C@@]23C(=O)O`, for which the Therapeutic index in series [3] stood at 5.7. In series [4], this molecule had a CC50 of 46 µg/mL (≈ 103 µM). In addition, the minimum inhibitory concentration (MIC) is 128 µg/mL (≈ 286 µM) in series [1] and 8 µg/mL (≈ 17.9 µM) in series [2].
As for `CCCCOC1CC(C23C[C@@H]4[C@H](C)CC[C@H]4C4(C=O)CC2C=C(C(C)C)[C@@]34C(=O)O)=NO1` (stereo not given in full), the MIC was 8 µg/mL (≈ 18 µM) in series [1] and 1 µg/mL (≈ 2.25 µM) in series [2].
In the case of `Cc1noc(C)c1CO/N=C/C12C[C@@H]3[C@H](C)CC[C@H]3C3(C=O)CC1C=C(C(C)C)[C@@]23C(=O)O`, the minimum inhibitory concentration (MIC) is 128 µg/mL (≈ 282 µM) in series [1] and over 128 µg/mL in series [2].
In series [3], `CC(C)C1=CC2CC3(C=O)[C@@H]4CC[C@@H](C)[C@H]4CC2(/C=N/OC2CCCCO2)[C@]13C(=O)O` (stereo not given in full) returned a Therapeutic index of 66. Further, it took 33 µg/mL (≈ 76.8 µM) to reach half-maximal cytotoxicity in series [4] (CC50). Also, the MIC was 1 µg/mL (≈ 2.33 µM) in series [1] and 0.5 µg/mL (≈ 1.16 µM) in series [2].
Taken in the same sequence, the figures for `CC(C)C1=CC2CC3(C=O)[C@@H]4CC[C@@H](C)[C@H]4CC2(/C=N/OCc2ccccc2Cl)[C@]13C(=O)O` were 0.7, 1.4 µg/mL (≈ 2.98 µM), 8 µg/mL (≈ 17 µM) and 2 µg/mL (≈ 4.26 µM).
On the same counts, the results for `CC(C)CCO/N=C/C12C[C@@H]3[C@H](C)CC[C@H]3C3(C=O)CC1C=C(C(C)C)[C@@]23C(=O)O` are 8, 4 µg/mL (≈ 9.63 µM), 1 µg/mL (≈ 2.41 µM) and 0.5 µg/mL (≈ 1.2 µM).
Turning to `CC(C)C1=CC2CC3(C=O)[C@@H]4CC[C@@H](C)[C@H]4CC2(C2=NOC4C2CCN4Cc2ccccc2)[C@]13C(=O)O` (stereo not given in full), the MIC in series [1] and in series [2] was over 128 µg/mL each time.
`CC(C)C1=CC2CC3(C=O)[C@@H]4CC[C@@H](C)[C@H]4CC2(c2cc(-c4ccccc4)on2)[C@]13C(=O)O`: the figures for the MIC in series [1] and in series [2] were 0.25 µg/mL (≈ 0.561 µM) and 8 µg/mL (≈ 18 µM), respectively.
Regarding `COC1C(O)[C@H](O)[C@H](OC[C@@]23C[C@@H]4[C@H](C)CC[C@H]4[C@@]4(C=O)CC2C=C(C(C)C)[C@@]34C(=O)O)O[C@@H]1C` (single isomer, unassigned) [SORDARIN], the Therapeutic index in series [3] was 10. In series [4], this molecule had a CC50 of 167 µg/mL (≈ 339 µM). The MIC in series [1] was over 128 µg/mL; in series [2], 16 µg/mL (≈ 32.5 µM).
